This test concerns BDF1 mice, P388 leukemia ip, median survival T/C. The experiment in a line: NCI In Vivo Anticancer Drug Screen. Data for tumor model P388 Leukemia (intraperitoneal) in B6D2F1 (BDF1) mice. The following applies: endpoint: median survival time, higher = longer survival. In a few lines:
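Survival ratio, drug arm over vehicle arm, in mice with a transplanted tumour.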

[1] abbreviates: dose: 25.0 mg/kg/injection, schedule: Q04DX003 (ip), vehicle: saline.
The mark [2] stands for this setting: dose: 50.0 mg/kg/injection, schedule: Q04DX003 (ip), vehicle: saline.
The mark [3] stands for this setting: dose: 100.0 mg/kg/injection, schedule: Q04DX003 (ip), vehicle: saline.
[4] abbreviates: dose: 50.0 mg/kg/injection, schedule: Q01DX009 (ip), vehicle: saline with Tween-80.
Where [5] appears, read: dose: 100.0 mg/kg/injection, schedule: Q01DX009 (ip), vehicle: saline with Tween-80.
The mark [6] stands for this setting: dose: 200.0 mg/kg/injection, schedule: Q04DX003 (ip), vehicle: Klucel (hydroxypropylcellulose) (HPC).

“And” between values parts separate entries of the source, which are not always exact repeats. Equal values may be shown once. Toxic doses and inconclusive results are not listed. Residues, ends and D or L forms follow the SMILES beside them. *: point of attachment. Trt = c1ccc(C(c2ccccc2)(c2ccccc2)*)cc1; Boc = CC(C)(C)OC(=O)*

14 compounds from PubChem BioAssay AID328 (DTP/NCI, 2004) can be followed below.

As for `Nc1nc(=O)n(C2OC(CO)C(O)C2O)c2scnc12` (stereo not given), the T/C reads like this: under setting [1], 108 % of control; under setting [2], 118 % of control; under setting [3], 118 % of control; (dose: 200.0 mg/kg/injection, schedule: Q04DX003 (ip), vehicle: saline) 108 % of control.
As for `CN1C(=O)C(C)(C)C(=O)C1(C)C`, the T/C reads like this: (dose: 12.5 mg/kg/injection, schedule: Q01DX001 (ip), vehicle: saline) 100 % of control; (dose: 25.0 mg/kg/injection, schedule: Q01DX001 (ip), vehicle: saline) 100 % of control; (dose: 50.0 mg/kg/injection, schedule: Q01DX001 (ip), vehicle: saline) 100 % of control.
For `NCC(=O)O.[Cl][Ga]([Cl])[Cl]`, under “dose: 25.0 mg/kg/injection, schedule: Q01DX009 (ip), vehicle: saline”, the T/C was 120 % of control.
With `C[CH2][Ge]([CH2]C)[CH2]C.C[CH2][Ge]([CH2]C)[CH2]C.C[CH2][Ge]([CH2]C)[O][Ge]([CH2]C)[CH2]C`, the T/C runs as follows: under setting [4], 115 % of control and 116 % of control; under setting [5], 112 % of control.
`CC(=O)C(C(C)=O)C(Cl)C(C(C)=O)C(C)=O`: the T/C runs as follows: (dose: 50.0 mg/kg/injection, schedule: Q01DX005 (ip), vehicle: saline with Tween-80) 99 % of control; (dose: 100.0 mg/kg/injection, schedule: Q01DX005 (ip), vehicle: saline with Tween-80) 92 % of control; (dose: 200.0 mg/kg/injection, schedule: Q01DX005 (ip), vehicle: saline with Tween-80) 99 % of control.
In the case of `CC1(CO)C(O)CCC2(C)C1CCC1CC3CC12CCC3(O)CO` (stereo not given), the T/C reads like this: (dose: 75.0 mg/kg/injection, schedule: Q01DX009 (ip), vehicle: saline with Tween-80) 155 % of control; (dose: 150.0 mg/kg/injection, schedule: Q01DX009 (ip), vehicle: saline with Tween-80) 155 % of control.
For `O=C1NC(=O)C(F)(F)C(O)N1` (stereo not given), the T/C reads like this: (dose: 12.0 mg/kg/injection, schedule: Q01DX009 (ip), vehicle: saline) 115 % of control; (dose: 65.0 mg/kg/injection, schedule: Q01DX009 (ip), vehicle: saline) 154 % of control; (dose: 100.0 mg/kg/injection, schedule: Q01DX009 (ip), vehicle: saline) 154 % of control; (dose: 150.0 mg/kg/injection, schedule: Q01DX009 (ip), vehicle: saline) 166 % of control; (dose: 220.0 mg/kg/injection, schedule: Q01DX009 (ip), vehicle: saline) 179 % of control; (dose: 320.0 mg/kg/injection, schedule: Q01DX009 (ip), vehicle: saline) 195 % of control.
`N#CN1CC(C(=O)N2CCCCC2)C=C2c3cccc4[nH]cc(c34)CC21` (stereo not given): the T/C is, setting by setting: (dose: 6.25 mg/kg/injection, schedule: Q01DX009 (ip), vehicle: saline) 106 % of control; (dose: 6.25 mg/kg/injection, schedule: Q04DX003 (ip), vehicle: saline) 114 % of control; (dose: 12.5 mg/kg/injection, schedule: Q01DX009 (ip), vehicle: saline) 94 % of control; (dose: 12.5 mg/kg/injection, schedule: Q04DX003 (ip), vehicle: saline) 113 % of control; under setting [1], 106 % of control; (dose: 50.0 mg/kg/injection, schedule: Q01DX009 (ip), vehicle: saline) 88 % of control. For the same compound, the T/C was 106 % of control under setting [2] and 94 % of control under setting [3].
For `N#CC1CCCCC1C1(C#N)CCCCC1Cc1ccccn1` (stereo not given), the T/C by setting is: (dose: 100.0 mg/kg/injection, schedule: Q04DX002 (ip), vehicle: saline with Tween-80) 98 % of control; (dose: 200.0 mg/kg/injection, schedule: Q04DX002 (ip), vehicle: saline with Tween-80) 107 % of control; (dose: 400.0 mg/kg/injection, schedule: Q04DX002 (ip), vehicle: saline with Tween-80) 92 % of control.
Consider `COc1cc(N(C)C)c(OC)cc1C=O`, for which the T/C was 100 % of control (dose: 50.0 mg/kg/injection, schedule: Q01DX009 (ip), vehicle: Klucel (hydroxypropylcellulose) (HPC)); 90 % of control (dose: 100.0 mg/kg/injection, schedule: Q01DX009 (ip), vehicle: Klucel (hydroxypropylcellulose) (HPC)); 95 % of control (dose: 100.0 mg/kg/injection, schedule: Q04DX003 (ip), vehicle: Klucel (hydroxypropylcellulose) (HPC)); 109 % of control (dose: 200.0 mg/kg/injection, schedule: Q01DX009 (ip), vehicle: Klucel (hydroxypropylcellulose) (HPC)); 95 % of control under setting [6]; 100 % of control (dose: 400.0 mg/kg/injection, schedule: Q04DX003 (ip), vehicle: Klucel (hydroxypropylcellulose) (HPC)).
As for `CC(C)(C)OC(=O)NCCCCC(NC(=O)CNC(=O)C(CSC(c1ccccc1)(c1ccccc1)c1ccccc1)NC(=O)OC(C)(C)C)C(=O)O` (stereo not given) (Boc-Cys(Trt)-Gly-Lys(Boc)-OH; configuration not given here), the T/C was 100 % of control under setting [1], 104 % of control under setting [2] and 104 % of control under setting [3].
As to `NC(=O)OCCI`, the T/C is, setting by setting: (dose: 50.0 mg/kg/injection, schedule: Q04DX003 (ip), vehicle: other) 100 % of control; (dose: 100.0 mg/kg/injection, schedule: Q04DX003 (ip), vehicle: other) 120 % of control; (dose: 132.0 mg/kg/injection, schedule: Q04DX003 (ip), vehicle: Klucel (hydroxypropylcellulose) (HPC)) 150 % of control and 177 % of control; under setting [6], 90 % of control; (dose: 200.0 mg/kg/injection, schedule: Q04DX003 (ip), vehicle: other) 155 % of control.
Turning to `CN(C)c1ccc(/C=C/c2ccnc3ccc(Br)cc23)cc1`, the T/C was 109 % of control under setting [4]; 114 % of control under setting [5]; 116 % of control (dose: 200.0 mg/kg/injection, schedule: Q01DX009 (ip), vehicle: saline with Tween-80).
With `Cc1ccc([I+]c2ccc(C)cc2C)c(C)c1`, the T/C reads like this: (dose: 0.19 mg/kg/injection, schedule: Q01DX009 (ip), vehicle: Klucel (hydroxypropylcellulose) (HPC)) 90 % of control; (dose: 0.39 mg/kg/injection, schedule: Q01DX009 (ip), vehicle: Klucel (hydroxypropylcellulose) (HPC)) 90 % of control; (dose: 0.78 mg/kg/injection, schedule: Q01DX009 (ip), vehicle: Klucel (hydroxypropylcellulose) (HPC)) 100 % of control; (dose: 1.17 mg/kg/injection, schedule: Q04DX003 (ip), vehicle: Klucel (hydroxypropylcellulose) (HPC)) 104 % of control; (dose: 1.5 mg/kg/injection, schedule: Q01DX009 (ip), vehicle: Klucel (hydroxypropylcellulose) (HPC)) 90 % of control; (dose: 1.56 mg/kg/injection, schedule: Q01DX009 (ip), vehicle: Klucel (hydroxypropylcellulose) (HPC)) 87 % of control. Further, the T/C is, setting by setting: (dose: 2.34 mg/kg/injection, schedule: Q04DX003 (ip), vehicle: Klucel (hydroxypropylcellulose) (HPC)) 108 % of control; (dose: 3.0 mg/kg/injection, schedule: Q01DX009 (ip), vehicle: Klucel (hydroxypropylcellulose) (HPC)) 100 % of control and 103 % of control; (dose: 4.68 mg/kg/injection, schedule: Q04DX003 (ip), vehicle: Klucel (hydroxypropylcellulose) (HPC)) 113 % of control; (dose: 6.0 mg/kg/injection, schedule: Q01DX009 (ip), vehicle: Klucel (hydroxypropylcellulose) (HPC)) 103 % of control; (dose: 6.6 mg/kg/injection, schedule: Q04DX003 (ip), vehicle: Klucel (hydroxypropylcellulose) (HPC)) 100 % of control; (dose: 10.0 mg/kg/injection, schedule: Q04DX003 (ip), vehicle: Klucel (hydroxypropylcellulose) (HPC)) 113 % of control. In addition, the T/C by setting is: (dose: 12.0 mg/kg/injection, schedule: Q04DX003 (ip), vehicle: Klucel (hydroxypropylcellulose) (HPC)) 100 % of control; (dose: 12.5 mg/kg/injection, schedule: Q04DX003 (ip), vehicle: Klucel (hydroxypropylcellulose) (HPC)) 103 % of control; (dose: 25.0 mg/kg/injection, schedule: Q04DX003 (ip), vehicle: Klucel (hydroxypropylcellulose) (HPC)) 100 % of control; (dose: 50.0 mg/kg/injection, schedule: Q04DX003 (ip), vehicle: Klucel (hydroxypropylcellulose) (HPC)) 91 % of control.
